Test results as given in ChEMBL document CHEMBL1201862, “PubChem BioAssay data set” (2004).
Calls of active or inactive are those of the source.

Assays:
Caspase-8 = Caspase-8 (Homo sapiens, UniProt Q14790); assay: caspase-8 inhibition counter-screen, dose response, selectivity assay for caspase-6 inhibitor project, biochemical, Z-IETD-R110 fluorescence, cherry-picked samples (AID 743294)
Caspase-7 = Caspase-7 (Homo sapiens, UniProt P55210); assay: human caspase-7 inhibitors, dose response, selectivity assay for caspase-6 inhibitor project, biochemical, DEVD-R110 fluorescence, cherry-pick (AID 743295)
Caspase-7, sequence (P55210 24-198 limits assumed): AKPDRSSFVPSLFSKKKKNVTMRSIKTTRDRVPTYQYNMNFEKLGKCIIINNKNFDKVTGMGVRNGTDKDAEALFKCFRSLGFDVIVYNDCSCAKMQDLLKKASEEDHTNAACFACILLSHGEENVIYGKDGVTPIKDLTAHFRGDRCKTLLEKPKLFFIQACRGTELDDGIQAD
Caspase-7, sequence (P55210 207-303 limits assumed): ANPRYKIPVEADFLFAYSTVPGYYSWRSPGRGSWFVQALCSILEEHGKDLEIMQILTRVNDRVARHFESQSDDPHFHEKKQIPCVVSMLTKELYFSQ

Protein skinhead-1 = target: T1, Protein skinhead-1 (Caenorhabditis elegans, UniProt P34707); format: functional
T1 sequence (P34707 whole entry): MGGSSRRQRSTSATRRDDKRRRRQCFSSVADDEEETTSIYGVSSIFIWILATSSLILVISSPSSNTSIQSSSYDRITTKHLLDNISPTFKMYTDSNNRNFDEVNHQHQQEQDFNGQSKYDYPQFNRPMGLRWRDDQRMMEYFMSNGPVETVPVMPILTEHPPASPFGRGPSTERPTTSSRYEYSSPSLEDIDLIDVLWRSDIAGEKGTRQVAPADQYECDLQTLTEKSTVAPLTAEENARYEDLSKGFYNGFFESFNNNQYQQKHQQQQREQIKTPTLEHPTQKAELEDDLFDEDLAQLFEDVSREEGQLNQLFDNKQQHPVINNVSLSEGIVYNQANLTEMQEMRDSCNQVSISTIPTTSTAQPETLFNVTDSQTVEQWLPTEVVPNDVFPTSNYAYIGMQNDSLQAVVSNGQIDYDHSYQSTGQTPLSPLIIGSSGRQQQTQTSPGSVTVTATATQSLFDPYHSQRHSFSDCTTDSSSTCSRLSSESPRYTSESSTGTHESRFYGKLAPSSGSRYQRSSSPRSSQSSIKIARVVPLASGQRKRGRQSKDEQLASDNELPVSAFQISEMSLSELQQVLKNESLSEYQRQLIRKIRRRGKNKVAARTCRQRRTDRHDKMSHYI

[1] = target: Tyrosyl-DNA phosphodiesterase 2 (Homo sapiens, UniProt O95551); assay: human TDP2 enzyme inhibitors, dose response, biochemical, epi absorbance, IC50 (AID 743297)
Tyrosyl-DNA phosphodiesterase 2, sequence (O95551 whole entry): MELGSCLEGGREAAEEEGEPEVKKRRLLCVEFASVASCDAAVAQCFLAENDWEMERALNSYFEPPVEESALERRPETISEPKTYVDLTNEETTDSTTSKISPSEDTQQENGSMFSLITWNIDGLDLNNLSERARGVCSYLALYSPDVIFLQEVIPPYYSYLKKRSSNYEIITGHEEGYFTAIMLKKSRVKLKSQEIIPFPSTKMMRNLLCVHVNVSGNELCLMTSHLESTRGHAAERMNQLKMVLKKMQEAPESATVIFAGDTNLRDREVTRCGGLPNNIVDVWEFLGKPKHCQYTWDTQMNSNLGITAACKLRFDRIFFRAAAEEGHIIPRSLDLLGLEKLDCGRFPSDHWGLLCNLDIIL

Caspase-3 = target: T2, Caspase-3 (Homo sapiens, UniProt P42574); assay: caspase-3 enzyme inhibitors, selectivity check, dose response, selectivity assay for caspase-6 allosteric inhibitor project, biochemical, fluorescence, cherry-picked samples (AID 743291)
T2 sequence (P42574 whole entry): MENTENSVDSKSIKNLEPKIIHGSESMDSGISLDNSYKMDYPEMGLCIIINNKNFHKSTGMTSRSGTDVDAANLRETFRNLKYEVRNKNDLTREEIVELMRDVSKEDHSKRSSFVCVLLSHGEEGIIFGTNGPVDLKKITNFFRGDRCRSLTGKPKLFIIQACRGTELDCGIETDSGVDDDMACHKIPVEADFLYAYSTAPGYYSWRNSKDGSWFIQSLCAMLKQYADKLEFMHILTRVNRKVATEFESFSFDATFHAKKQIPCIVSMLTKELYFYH

Caspase-6 = Caspase-6 (Homo sapiens, UniProt P55212); assay: human caspase-6 inhibitors, dose response, biochemical, VEID-R110 fluorescence, cherry-pick (AID 720632)
Caspase-6, sequence (P55212 24-179 limits assumed): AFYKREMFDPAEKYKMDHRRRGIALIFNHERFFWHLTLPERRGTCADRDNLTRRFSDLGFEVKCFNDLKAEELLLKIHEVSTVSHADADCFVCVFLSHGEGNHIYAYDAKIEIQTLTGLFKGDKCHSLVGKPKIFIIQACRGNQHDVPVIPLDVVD
Caspase-6, sequence (P55212 194-293 limits assumed): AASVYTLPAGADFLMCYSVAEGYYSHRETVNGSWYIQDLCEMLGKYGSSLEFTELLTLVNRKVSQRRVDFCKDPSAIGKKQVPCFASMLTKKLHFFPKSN

Caspase-9 = Caspase-9 (Homo sapiens, UniProt P55211); assay: caspase-9 enzyme inhibition, dose response, selectivity assay for caspase-6 inhibitor project, biochemical, fluorescence, plate reader, cherry-picked samples (AID 743293)
Caspase-9, sequence (P55211 1-315 limits assumed): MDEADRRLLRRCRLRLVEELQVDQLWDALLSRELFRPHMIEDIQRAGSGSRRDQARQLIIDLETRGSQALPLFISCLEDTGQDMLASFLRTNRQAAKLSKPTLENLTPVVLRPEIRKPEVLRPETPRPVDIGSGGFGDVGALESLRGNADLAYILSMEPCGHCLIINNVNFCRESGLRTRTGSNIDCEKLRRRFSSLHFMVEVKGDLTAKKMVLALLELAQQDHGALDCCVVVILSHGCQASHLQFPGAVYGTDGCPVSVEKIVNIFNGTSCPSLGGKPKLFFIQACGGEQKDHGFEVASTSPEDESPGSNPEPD
Caspase-9, sequence (P55211 331-416 limits assumed): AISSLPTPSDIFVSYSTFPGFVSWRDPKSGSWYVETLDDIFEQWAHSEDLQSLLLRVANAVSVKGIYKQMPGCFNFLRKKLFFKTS

[2] = target: T3, Polyadenylate-binding protein 1 (Homo sapiens, UniProt P11940); assay: PABP1 MLLE–PAM2 binding inhibitor potency, dose response, biochemical, fluorescence polarization, FITC-PAM2 peptide (AID 602259); format: functional; conditions: read-out: IC50_Mean
T3 sequence (P11940 whole entry): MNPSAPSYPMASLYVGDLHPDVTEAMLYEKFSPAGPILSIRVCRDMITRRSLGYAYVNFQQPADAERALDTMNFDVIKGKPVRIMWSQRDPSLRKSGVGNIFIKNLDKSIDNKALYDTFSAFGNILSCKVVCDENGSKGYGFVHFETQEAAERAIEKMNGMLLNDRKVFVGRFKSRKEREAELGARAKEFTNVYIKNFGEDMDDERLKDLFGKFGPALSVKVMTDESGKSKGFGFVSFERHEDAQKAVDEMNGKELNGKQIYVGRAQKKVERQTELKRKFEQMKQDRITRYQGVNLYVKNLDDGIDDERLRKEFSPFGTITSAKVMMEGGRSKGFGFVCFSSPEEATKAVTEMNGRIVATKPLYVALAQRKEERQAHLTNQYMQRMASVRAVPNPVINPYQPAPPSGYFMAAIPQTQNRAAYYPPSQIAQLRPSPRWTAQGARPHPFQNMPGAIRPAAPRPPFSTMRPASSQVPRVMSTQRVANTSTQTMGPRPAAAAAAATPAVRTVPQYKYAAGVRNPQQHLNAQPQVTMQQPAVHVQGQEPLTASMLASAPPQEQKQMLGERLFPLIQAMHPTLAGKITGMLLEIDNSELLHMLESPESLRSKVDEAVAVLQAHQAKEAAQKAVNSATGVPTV

[3] = target: T3, Polyadenylate-binding protein 1; assay: PABP1 MLLE–PAM2 interaction inhibitors, dose response, miRNA deadenylation inhibitor project, biochemical, fluorescence polarization, Cy5-PAM2 peptide, secondary (AID 602260); format: functional; conditions: read-out: IC50_Mean
NADPH oxidase 1 = NADPH oxidase 1 (Homo sapiens, UniProt Q9Y5S8); assay: Late-stage luminescence-based cell-based dose response assay to identify inhibitors of NADPH oxidase 1 (NOX1): Synthesized analogs 2.; format: functional
NADPH oxidase 1, sequence (Q9Y5S8 whole entry): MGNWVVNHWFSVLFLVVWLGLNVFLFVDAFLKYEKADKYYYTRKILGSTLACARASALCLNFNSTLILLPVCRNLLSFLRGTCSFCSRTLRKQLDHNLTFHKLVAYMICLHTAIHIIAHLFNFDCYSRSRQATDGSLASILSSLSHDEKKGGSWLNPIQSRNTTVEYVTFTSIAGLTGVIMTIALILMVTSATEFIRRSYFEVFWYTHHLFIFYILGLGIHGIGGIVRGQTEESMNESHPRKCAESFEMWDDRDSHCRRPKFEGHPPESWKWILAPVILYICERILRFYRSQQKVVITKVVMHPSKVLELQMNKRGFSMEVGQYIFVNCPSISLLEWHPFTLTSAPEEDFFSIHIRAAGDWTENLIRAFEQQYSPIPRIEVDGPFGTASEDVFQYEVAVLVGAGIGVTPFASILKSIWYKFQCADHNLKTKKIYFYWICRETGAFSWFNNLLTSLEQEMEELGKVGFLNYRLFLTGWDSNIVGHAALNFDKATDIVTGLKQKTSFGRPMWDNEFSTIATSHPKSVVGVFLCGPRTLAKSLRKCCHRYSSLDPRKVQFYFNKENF

[4] = M. tuberculosis growth inhibition, HTS (AID 449762); format: functional
Ephrin type-A receptor 4 = Ephrin type-A receptor 4 (Mus musculus, UniProt Q03137); assay: inhibitors of EphA4 binding to KYL peptide, primary screen, biochemical, colorimetric, mouse EphA4 (AID 689); format: functional
Ephrin type-A receptor 4, sequence (Q03137 whole entry): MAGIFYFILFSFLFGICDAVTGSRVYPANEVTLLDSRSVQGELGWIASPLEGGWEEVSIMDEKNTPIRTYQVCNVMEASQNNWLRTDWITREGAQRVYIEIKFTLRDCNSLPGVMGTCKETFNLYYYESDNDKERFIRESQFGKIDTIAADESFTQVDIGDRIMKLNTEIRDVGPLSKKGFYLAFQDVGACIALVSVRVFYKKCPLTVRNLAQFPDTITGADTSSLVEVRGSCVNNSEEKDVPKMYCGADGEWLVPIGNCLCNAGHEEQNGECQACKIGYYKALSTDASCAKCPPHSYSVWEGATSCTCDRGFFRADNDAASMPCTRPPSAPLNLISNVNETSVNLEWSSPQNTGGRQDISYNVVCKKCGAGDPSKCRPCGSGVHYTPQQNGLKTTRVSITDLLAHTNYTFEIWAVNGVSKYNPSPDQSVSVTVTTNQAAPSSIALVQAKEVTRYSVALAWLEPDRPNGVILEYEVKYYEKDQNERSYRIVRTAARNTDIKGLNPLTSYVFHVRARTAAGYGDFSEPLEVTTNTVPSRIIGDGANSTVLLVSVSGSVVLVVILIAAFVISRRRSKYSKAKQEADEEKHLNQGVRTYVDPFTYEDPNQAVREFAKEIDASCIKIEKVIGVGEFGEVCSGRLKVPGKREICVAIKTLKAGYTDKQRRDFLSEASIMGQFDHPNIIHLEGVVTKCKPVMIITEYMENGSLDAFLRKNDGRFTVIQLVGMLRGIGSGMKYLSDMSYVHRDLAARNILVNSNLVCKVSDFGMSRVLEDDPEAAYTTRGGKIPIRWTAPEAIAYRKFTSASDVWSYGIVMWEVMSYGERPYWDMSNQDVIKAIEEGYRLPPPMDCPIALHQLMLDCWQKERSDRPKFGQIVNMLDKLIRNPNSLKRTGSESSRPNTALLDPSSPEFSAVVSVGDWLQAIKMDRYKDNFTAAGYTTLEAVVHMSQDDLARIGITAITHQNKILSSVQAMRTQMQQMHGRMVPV

[5] = TB: CFU replicating Measured in Microorganism System Using Imaging - 7108-05_Inhibitor_Dose_DryPowder_Activity_Set2.; format: functional
[6] = Dose-response inhibition of insulin secretion in a rat insulinoma line at 5 mM glucose (AID 1117331); format: functional, cell-based; conditions: INS-1E
[7] = P. falciparum late gametocyte killing, dose response, luminescence (AID 1117278); format: functional, cell-based;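 also: gametocytes exposed to compound for 24 hours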
[8] = Jurkat T cell cytotoxicity, dose response, cytotoxicity control for P. falciparum gametocyte viability project, luminescence (AID 1117277); format: functional, cell-based;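 also: potency reflects loss of cellular ATP meaning fewer viable cells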

Caspase-8, sequence (Q14790 217-374 limits assumed): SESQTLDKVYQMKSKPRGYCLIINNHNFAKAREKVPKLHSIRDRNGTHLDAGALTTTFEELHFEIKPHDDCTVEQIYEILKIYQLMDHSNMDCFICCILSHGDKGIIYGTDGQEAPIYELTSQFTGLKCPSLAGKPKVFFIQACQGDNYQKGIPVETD
Caspase-8, sequence (Q14790 385-479 limits assumed): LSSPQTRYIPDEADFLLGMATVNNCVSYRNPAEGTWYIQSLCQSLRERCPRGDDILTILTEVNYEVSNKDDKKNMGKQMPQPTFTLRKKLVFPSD

SMILES: Cn1c(=O)c2c(-c3ccccc3)n(-c3ccc(N)cc3)cc2n(C)c1=O
- AC50 (Caspase-8): > 70 µM (inactive)
- AC50 (Caspase-7): 8.62 µM (active)
- IC50 (Protein skinhead-1): 73.6 µM (inactive)
- IC50 [1]: > 128 µM (inactive)
- AC50 (Caspase-3): 19.2 µM (active)
- AC50 (Caspase-6): 1.07 µM (active)
- AC50 (Caspase-9): 69.8 µM (active)
- IC50 [2]: 38.4 µM (inactive)
- IC50 [3]: > 66 µM (inactive)

SMILES: CN1c2ccc(N=[N+]=[N-])cc2Sc2cc(N=[N+]=[N-])ccc21
- IC50 (NADPH oxidase 1): 7.05 µM (active)

SMILES: CC(C)c1ccc2[nH]c(O)c(N=NC(=O)c3ccc(CSc4nncn4C)cc3)c2c1
- IC50 [4]: > 100 µM (active)

SMILES: CCn1c2ccc(Cl)cc2c2nc3ccccc3nc21
- IC50 (Ephrin type-A receptor 4): 18.2 µM (active)

SMILES: Cn1c(NC(=O)c2ccccc2)nc2c(F)cccc21
- AbsAC90 [5]: 160.65 µM

SMILES: CN1CCN2c3ccccc3Cc3ccccc3C2C1 (stereo unspecified) [MIANSERIN]
- IC50 [6]: > 11.1 µM (inactive)

SMILES: COc1cc(S(=O)(=O)NC2CCCCC2)c(C)cc1C
- IC50 [7]: > 109 µM (inactive)
- IC50 [8]: > 83.3 µM (inactive)
